Experiment: Accelerated stability test (50° C.) with pH stability test of sucralose sample solution
Assay type: physicochemical
Details: for Days to pH Failure / Days to pH Failure (Final Product Moisture Content) / Days to pH Failure (Initial Moisture Content) / Ph Stability: 50° C.; for Days to pH Failure: WHIRLPAK polyethylene bags, failure = pH drop ≧1.0; for Initial pH: sample solution (5 g in 50 ml pH-adjusted water) at time zero; for Initial pH difference: sample solution vs pH-adjusted water at time zero; for Days to pH Failure (Final Product Moisture Content): final dried product; for Days to pH Failure (Final Product Moisture Content) / Days to pH Failure (Initial Moisture Content): Example 3; for Days to pH Failure (Initial Moisture Content): partially dried product at intermediate (initial) moisture content
Source text: Label seven 6 oz. and seven 18 oz. WHIRLPAK® polyethylene bags with indelible marker for each batch being tested for stability. Accurately weigh 25 g±0.01 g of sucralose into each 6 oz. WHIRLPAK® polyethylene bag. Heat or impulse seal the 6 oz. bag to ensure air tightness. Cut off any excess polyethylene at the top of the bag above the seal. Place the 6 oz. sealed bag into the 18 oz. bag and heat or impulse seal the 18 oz. bag to ensure air tightness. Roll down the top of the 18 oz. bag above the seal and bend the metal ties to form hooks.
Place the prepared bags into an oven stabilized at 50° C.±0.5° C. by hanging them from racks by the bag hooks. The bags must be freely suspended and not touch anything. Record the time samples are placed into the oven.
The pH stability test is conducted on the sucralose at time zero (the day the samples are placed in the oven, before the sucralose is exposed to elevated temperature) and every 24 hours until the batch being tested fails the test.
Place approximately 100 ml of deionized water into a 150 ml beaker. Using 0.1 N hydrochloric acid and/or 0.1 N sodium hydroxide, adjust the pH of the water to be between 5.8 and 6.0. Record the pH reading.
Accurately weigh 5 g±0.001 g of the product to be tested and transfer it to a 50 ml volumetric flask. Dissolve and bring to the mark by adding pH-adjusted water. If the sample to be tested is one that has been exposed to heat, remove one bag of the batch being tested from the oven and allow it to cool to room temperature before opening and sampling.
Pour the solution into a 100 ml beaker containing a stir bar, and slowly stir the solution on a magnetic stirrer. Immerse the pH electrode in the sample, allow the pH reading to stabilize, and record the pH reading of the sample. If no pH drop is observed after all the bags have been tested, the experiment is void and the test must repeated with a larger number of bags.
Record (to one decimal place) the pH of both the pH-adjusted water used and the sample sucralose solution. Subtract the pH of the […]. Report the result as (−) for a pH drop and (+) for a pH gain, e.g.:
The sample fails the test if there is a pH drop of 1.0 pH unit or more. The pH stability of the batch is defined as the number of days until the pH drop between the sample solution and that of the pH adjusted water is ≧1.0.
Samples of sucralose were tested for stability using the above procedures, but using bags of different moisture permeability. All other experimental details were the same. The TYVEK®/polyethylene bags are permeable; the WHIRLPAK® bags are less permeable. The A8080 bag consists of aluminum foil laminated to low-density polyethylene, which makes it very impermeable to moisture.

[1] = Example 1, sodium acetate in mother liquor varied
[2] = (−) pH drop, (+) pH gain, Example 1
[3] = Example 2, pH at crystallizer varied

| SMILES | Days to pH Failure [1] [Days] | Initial pH [1] | Initial pH difference [2] | Days to pH Failure [3] [Days] | Days to pH Failure (Final Product Moisture Content) [Days] | Days to pH Failure (Initial Moisture Content) [Days] | Initial pH difference [3] | Ph Stability (package A8080 (aluminum foil laminated to low-density polyethylene), impermeable) [days] | Ph Stability (package FF 91 TYVEK/Polyethylene, very permeable) [days] |
| --- | --- | --- | --- | --- | --- | --- | --- | --- | --- |
| OC[C@H]1O[C@H](O[C@]2(CCl)O[C@H](CCl)[C@@H](O)[C@@H]2O)[C@H](O)[C@@H](O)[C@H]1Cl [Sample 11, 4,1′,6′-trichloro-4,1′,6′-trideoxy-galactosucrose] | 6 | 6.05 | +0.10 | – | – | – | – | – | – |
| OC[C@H]1O[C@H](O[C@]2(CCl)O[C@H](CCl)[C@@H](O)[C@@H]2O)[C@H](O)[C@@H](O)[C@H]1Cl [Sample 6, 4,1′,6′-trichloro-4,1′,6′-trideoxy-galactosucrose] | 4 | 5.53 | −0.39 | – | – | – | – | – | – |
| OC[C@H]1O[C@H](O[C@]2(CCl)O[C@H](CCl)[C@@H](O)[C@@H]2O)[C@H](O)[C@@H](O)[C@H]1Cl [Sample 28, 4,1′,6′-trichloro-4,1′,6′-trideoxy-galactosucrose] | 6 | 6.00 | +0.02 | – | – | – | – | – | – |
| OC[C@H]1O[C@H](O[C@]2(CCl)O[C@H](CCl)[C@@H](O)[C@@H]2O)[C@H](O)[C@@H](O)[C@H]1Cl [Sample 37, 4,1′,6′-trichloro-4,1′,6′-trideoxy-galactosucrose] | – | – | – | 5 | 5 | 21 | −0.06 | – | – |
| OC[C@H]1O[C@H](O[C@]2(CCl)O[C@H](CCl)[C@@H](O)[C@@H]2O)[C@H](O)[C@@H](O)[C@H]1Cl [Sample 42, 4,1′,6′-trichloro-4,1′,6′-trideoxy-galactosucrose] | – | – | – | 5 | 5 | 9 | +0.17 | – | – |
| OC[C@H]1O[C@H](O[C@]2(CCl)O[C@H](CCl)[C@@H](O)[C@@H]2O)[C@H](O)[C@@H](O)[C@H]1Cl [Sample 2, 4,1′,6′-trichloro-4,1′,6′-trideoxy-galactosucrose] | 6 | 5.73 | −0.19 | – | – | – | – | – | – |
| OC[C@H]1O[C@H](O[C@]2(CCl)O[C@H](CCl)[C@@H](O)[C@@H]2O)[C@H](O)[C@@H](O)[C@H]1Cl [Sample 22, 4,1′,6′-trichloro-4,1′,6′-trideoxy-galactosucrose] | 6 | 6.08 | +0.09 | – | – | – | – | – | – |
| OC[C@H]1O[C@H](O[C@]2(CCl)O[C@H](CCl)[C@@H](O)[C@@H]2O)[C@H](O)[C@@H](O)[C@H]1Cl [Sample 20, 4,1′,6′-trichloro-4,1′,6′-trideoxy-galactosucrose] | 6 | 6.09 | +0.08 | – | – | – | – | – | – |
| OC[C@H]1O[C@H](O[C@]2(CCl)O[C@H](CCl)[C@@H](O)[C@@H]2O)[C@H](O)[C@@H](O)[C@H]1Cl [Sample 41, 4,1′,6′-trichloro-4,1′,6′-trideoxy-galactosucrose] | – | – | – | 5 | 5 | 12 | +0.40 | – | – |
| OC[C@H]1O[C@H](O[C@]2(CCl)O[C@H](CCl)[C@@H](O)[C@@H]2O)[C@H](O)[C@@H](O)[C@H]1Cl [Sample 7, 4,1′,6′-trichloro-4,1′,6′-trideoxy-galactosucrose] | 5 | 5.70 | −0.22 | – | – | – | – | – | – |
| OC[C@H]1O[C@H](O[C@]2(CCl)O[C@H](CCl)[C@@H](O)[C@@H]2O)[C@H](O)[C@@H](O)[C@H]1Cl [Sample 31, 4,1′,6′-trichloro-4,1′,6′-trideoxy-galactosucrose] | 5 | 6.03 | +0.06 | – | – | – | – | – | – |
| OC[C@H]1O[C@H](O[C@]2(CCl)O[C@H](CCl)[C@@H](O)[C@@H]2O)[C@H](O)[C@@H](O)[C@H]1Cl [Sample 13, 4,1′,6′-trichloro-4,1′,6′-trideoxy-galactosucrose] | 5 | 5.85 | −0.10 | – | – | – | – | – | – |
| OC[C@H]1O[C@H](O[C@]2(CCl)O[C@H](CCl)[C@@H](O)[C@@H]2O)[C@H](O)[C@@H](O)[C@H]1Cl [Sample 35, 4,1′,6′-trichloro-4,1′,6′-trideoxy-galactosucrose] | – | – | – | 5 | 5 | 7 | +0.10 | – | – |
| OC[C@H]1O[C@H](O[C@]2(CCl)O[C@H](CCl)[C@@H](O)[C@@H]2O)[C@H](O)[C@@H](O)[C@H]1Cl [Sample 15, 4,1′,6′-trichloro-4,1′,6′-trideoxy-galactosucrose] | 5 | 6.06 | +0.13 | – | – | – | – | – | – |
| OC[C@H]1O[C@H](O[C@]2(CCl)O[C@H](CCl)[C@@H](O)[C@@H]2O)[C@H](O)[C@@H](O)[C@H]1Cl [sucralose, 4,1′,6′-trichloro-4,1′,6′-trideoxy-galactosucrose] | – | – | – | – | – | – | – | 33 | 4 |

From patent US8017767B2, “Sucralose composition” (Tate & Lyle Public Limited Company, priority 2000, dated 2011)
